Reference: patent US20160122342A1, “ENHANCER OF ZESTE HOMOLOG 2 INHIBITORS” (GLAXOSMITHKLINE INTELLECTUAL PROPERTY (NO.2) LIMITED, priority 2013, published 2016)

The compounds below were run against T1, EZH2 within the PRC2 complex (Homo sapiens, UniProt Q15910) (assay: Assay Protocol 2: EZH2 methyltransferase scintillation proximity assay, biotinylated histone H3 peptide substrate). Conditions: SPA, 3H-SAM, biotinylated unmethylated histone H3K27 peptide substrate, 5-member PRC2 complex.
T1 construct: FLAG; made in house; host or cells: Sf9 cells
T1 sequence (Q15910 whole entry): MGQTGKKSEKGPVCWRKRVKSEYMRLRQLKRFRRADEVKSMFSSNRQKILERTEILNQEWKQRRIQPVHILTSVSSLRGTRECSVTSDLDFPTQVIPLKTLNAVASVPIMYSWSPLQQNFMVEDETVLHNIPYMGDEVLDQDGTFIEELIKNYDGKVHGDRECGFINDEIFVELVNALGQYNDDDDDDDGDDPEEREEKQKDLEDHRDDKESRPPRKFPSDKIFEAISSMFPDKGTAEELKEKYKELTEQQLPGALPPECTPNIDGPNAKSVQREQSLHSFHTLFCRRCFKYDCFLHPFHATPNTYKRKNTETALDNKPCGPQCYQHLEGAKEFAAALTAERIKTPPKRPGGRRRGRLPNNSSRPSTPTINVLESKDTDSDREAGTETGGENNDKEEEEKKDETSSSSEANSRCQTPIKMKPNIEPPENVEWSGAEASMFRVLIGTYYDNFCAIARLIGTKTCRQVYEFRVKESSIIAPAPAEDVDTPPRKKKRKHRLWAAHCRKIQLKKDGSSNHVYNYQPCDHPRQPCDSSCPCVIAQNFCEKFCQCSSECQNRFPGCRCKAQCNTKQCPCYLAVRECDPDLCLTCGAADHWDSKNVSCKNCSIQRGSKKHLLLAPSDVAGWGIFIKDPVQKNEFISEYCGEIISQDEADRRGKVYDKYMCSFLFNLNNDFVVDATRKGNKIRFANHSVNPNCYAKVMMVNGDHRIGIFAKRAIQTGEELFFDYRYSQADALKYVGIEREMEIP
T1 sequence (O75530 whole entry partner): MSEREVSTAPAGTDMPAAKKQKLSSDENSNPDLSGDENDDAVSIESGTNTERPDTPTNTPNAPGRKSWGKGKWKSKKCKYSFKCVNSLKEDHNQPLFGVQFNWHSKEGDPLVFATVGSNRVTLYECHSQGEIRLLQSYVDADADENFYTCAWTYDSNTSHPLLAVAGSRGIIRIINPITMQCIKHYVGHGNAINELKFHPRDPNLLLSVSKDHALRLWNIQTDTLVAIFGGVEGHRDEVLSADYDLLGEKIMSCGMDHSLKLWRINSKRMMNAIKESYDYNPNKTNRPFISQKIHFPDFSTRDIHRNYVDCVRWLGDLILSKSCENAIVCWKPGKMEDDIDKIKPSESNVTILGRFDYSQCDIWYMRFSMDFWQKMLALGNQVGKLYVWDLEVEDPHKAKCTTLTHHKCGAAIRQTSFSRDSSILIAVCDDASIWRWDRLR
T1 sequence (Q15022 whole entry partner): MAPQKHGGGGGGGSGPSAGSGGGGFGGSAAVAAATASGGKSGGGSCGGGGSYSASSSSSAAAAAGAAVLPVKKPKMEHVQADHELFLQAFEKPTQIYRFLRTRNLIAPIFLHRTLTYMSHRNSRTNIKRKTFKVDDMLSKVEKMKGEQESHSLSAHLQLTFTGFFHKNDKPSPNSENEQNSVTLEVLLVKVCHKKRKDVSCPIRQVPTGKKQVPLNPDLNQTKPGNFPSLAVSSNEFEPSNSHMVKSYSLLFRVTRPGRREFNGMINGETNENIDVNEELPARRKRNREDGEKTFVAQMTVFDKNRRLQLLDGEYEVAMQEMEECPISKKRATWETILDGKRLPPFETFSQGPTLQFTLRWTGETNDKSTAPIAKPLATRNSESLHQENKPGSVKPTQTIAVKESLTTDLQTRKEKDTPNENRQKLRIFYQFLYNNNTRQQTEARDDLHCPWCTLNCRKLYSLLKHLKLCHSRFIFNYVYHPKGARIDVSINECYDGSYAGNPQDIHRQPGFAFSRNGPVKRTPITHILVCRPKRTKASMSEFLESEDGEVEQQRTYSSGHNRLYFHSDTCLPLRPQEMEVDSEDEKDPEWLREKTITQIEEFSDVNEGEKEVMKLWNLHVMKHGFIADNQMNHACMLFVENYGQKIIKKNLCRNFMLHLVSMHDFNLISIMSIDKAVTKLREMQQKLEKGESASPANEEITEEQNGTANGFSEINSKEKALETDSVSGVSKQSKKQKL
T1 sequence (Q09028 whole entry partner): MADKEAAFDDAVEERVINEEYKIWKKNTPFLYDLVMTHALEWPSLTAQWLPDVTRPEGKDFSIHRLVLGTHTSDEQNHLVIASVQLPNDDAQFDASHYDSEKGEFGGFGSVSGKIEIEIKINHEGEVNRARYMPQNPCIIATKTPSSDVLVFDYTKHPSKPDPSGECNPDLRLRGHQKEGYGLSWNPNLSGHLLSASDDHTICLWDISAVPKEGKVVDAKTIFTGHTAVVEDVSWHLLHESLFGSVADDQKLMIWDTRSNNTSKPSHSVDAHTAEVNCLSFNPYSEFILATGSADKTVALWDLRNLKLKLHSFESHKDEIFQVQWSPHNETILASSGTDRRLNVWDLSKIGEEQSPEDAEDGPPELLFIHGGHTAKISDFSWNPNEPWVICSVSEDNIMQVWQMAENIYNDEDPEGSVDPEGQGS
T1 sequence (Q6ZN18 whole entry partner): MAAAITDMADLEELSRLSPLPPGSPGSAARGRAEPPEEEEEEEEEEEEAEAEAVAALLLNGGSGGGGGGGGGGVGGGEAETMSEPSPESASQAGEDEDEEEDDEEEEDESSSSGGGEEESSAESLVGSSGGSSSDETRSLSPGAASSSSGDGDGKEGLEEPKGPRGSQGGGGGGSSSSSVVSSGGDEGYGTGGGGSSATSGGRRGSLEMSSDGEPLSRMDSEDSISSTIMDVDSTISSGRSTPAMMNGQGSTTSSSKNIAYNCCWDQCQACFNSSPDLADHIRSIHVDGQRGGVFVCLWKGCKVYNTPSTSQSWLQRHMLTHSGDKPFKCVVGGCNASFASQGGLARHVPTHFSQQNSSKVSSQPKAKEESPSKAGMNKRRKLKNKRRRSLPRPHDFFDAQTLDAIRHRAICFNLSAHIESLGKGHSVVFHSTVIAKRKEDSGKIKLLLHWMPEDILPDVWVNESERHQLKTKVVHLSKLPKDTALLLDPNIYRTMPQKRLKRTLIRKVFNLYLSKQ
Type: biochemical
Procedure: Compounds contained herein were evaluated for their ability to inhibit the methyltransferase activity of EZH2 within the PRC2 complex. […] The peptides were captured on streptavidin-coated SPA beads and the resulting signal was read on a ViewLux plate reader. • 4. Prepare 10 mM stock of compounds from solid in 100% DMSO. • 5. […] Dispense 10 nL of compound from the dilution plate into reaction plates (Corning, 384-well polystyrene NBS, Cat#3673). Prepare the following solutions: • 7. 1× Base Buffer, 50 mM Tris-HCl, pH 8, 2 mM MgCl2: Per 1 L of base buffer, combine 1 M Tris-HCl, pH 8 (50 mL), 1 M MgCl2 (2 mL), and distilled water (948 mL). • 8. 1× Assay Buffer: Per 10 mL of 1× Assay Buffer, combine 1× Base Buffer (9.96 mL), 1 M DTT (40 uL), and 10% Tween-20 (1 uL) to provide a final concentration of 50 mM Tris-HCl, pH 8, 2 mM MgCl2, 4 mM DTT, 0.001% Tween-20. • 9. 2× Enzyme Solution: […] SPA Bead Solution: Per 1 mL of SPA Bead Solution, combine Streptavidin coated SPA beads (PerkinElmer, Cat# RPNQ0261, 40 mg) and 1× Assay Buffer (1 mL) to provide a working concentration of 40 mg/mL. • 11. 2× Substrate Solution: Per 10 mL of 2× Substrate Solution, combine 40 mg/mL SPA Bead Solution (375 uL), 1 mM biotinylated histone H3K27 peptide (200 uL), 12.5 uM 3H-SAM (240 uL; 1 mCi/mL), 1 mM cold SAM (57 uL), and 1× Assay Buffer (9.13 mL) to provide a final concentration of 0.75 mg/mL SPA Bead Solution, 10 uM biotinylated histone H3K27 peptide, 0.15 uM 3H-SAM (˜12 uCi/mL 3H-SAM), and 2.85 uM cold SAM. • 12. 2.67× Quench Solution: Per 10 mL of 2.67× Quench Solution, combine 1× Assay Buffer (9.73 mL) and 10 mM cold SAM (267 uL) to provide a final concentration of 100 uM cold SAM. • 3. […] Dispense 5 uL/well of 1× Assay Buffer to column 18 (low control reactions). • 11. Dispense 5 uL/well of 2× Substrate Solution to columns 1-24 (note: substrate solution should be mixed to ensure homogeneous bead suspension before dispensing into matrix reservoir). • 12. Dispense 5 uL/well of 2× Enzyme Solution to columns 1-17, 19-24. • 13. Incubate the reaction for 60 min at room temperature. • 5. Dispense 6 uL/well of the 2.67× Quench Solution to columns 1-24. • 6. Seal assay plates and spin for ˜1 min at 500 rpm. • 7. Dark adapt plates in the ViewLux instrument for 15-60 min. • 2. Read the assay plates on the Viewlux Plate Reader utilizing the 613 nm emission filter or clear filter (300 s exposure). Reagent addition can be done manually or with automated liquid handler. Percent inhibition was calculated relative to the DMSO control for each compound concentration and the resulting values were fit using standard IC50 fitting parameters within the ABASE data fitting software package.

Row | IC50 | Compound
1 | 200 nM | CCN(c1cccc2c1C/C=C/CCc1cc(C)[nH]c(=O)c1CNC2=O)[C@H]1CC[C@@H](N2CC(F)(F)C2)CC1 [Example 80, (E)-10-((cis-4-(3,3-difluoroazetidin-1-yl)cyclohexyl)(ethyl)amino)-3-methyl-5,6,15,16-tetrahydrobenzo[c]pyrido[4,3-j][1]azacyclododecine-1,14(2H,9H)-dione]
2 | 200 nM | CCN(c1cccc2c1C/C=C/CCc1cc(C)[nH]c(=O)c1CNC2=O)[C@H]1CC[C@@H](N2CCOCC2)CC1 [Example 86, (E)-10-(ethyl(cis-4-morpholinocyclohexyl)amino)-3-methyl-5,6,15,16-tetrahydrobenzo[c]pyrido[4,3-j][1]azacyclododecine-1,14(2H,9H)-dione]
3 | 251 nM | CCN(c1cccc2c1C/C=C/CCc1cc(C)[nH]c(=O)c1CNC2=O)[C@H]1CC[C@@H](N2CC(F)C2)CC1 [Example 75, (E)-10-(ethyl(cis-4-(3-fluoroazetidin-1-yl)cyclohexyl)amino)-3-methyl-5,6,15,16-tetrahydrobenzo[c]pyrido[4,3-j][1]azacyclododecine-1,14(2H,9H)-dione]
4 | 251 nM | Cc1cc2c(c(=O)[nH]1)CNC(=O)c1cccc(N(CCO)C3CCOCC3)c1C/C=C/CC2 [Example 64, (E)-10-((2-hydroxyethyl)(tetrahydro-2H-pyran-4-yl)amino)-3-methyl-5,6,15,16-tetrahydrobenzo[c]pyrido[4,3-j][1]azacyclododecine-1,14(2H,9H)-dione]
5 | 100 nM | CCN(c1cccc2c1C/C=C/CCc1cc(C)[nH]c(=O)c1CNC2=O)[C@H]1CC[C@H](N(C)CC(F)F)CC1 [Example 57, (E)-10-((trans-4-((2,2-difluoroethyl)(methyl)amino)cyclohexyl)(ethyl)amino)-3-methyl-5,6,15,16-tetrahydrobenzo[c]pyrido[4,3-j][1]azacyclododecine-1,14(2H,9H)-dione]
6 | 158 nM | CCN(c1cccc2c1C/C=C/CCc1cc(C)[nH]c(=O)c1CNC2=O)[C@H]1CC[C@H](NCCC(F)(F)F)CC1 [Example 83, (E)-10-(ethyl(trans-4-((3,3,3-trifluoropropyl)amino)cyclohexyl)amino)-3-methyl-5,6,15,16-tetrahydrobenzo[c]pyrido[4,3-j][1]azacyclododecine-1,14(2H,9H)-dione]
7 | 100 nM | CCN(c1cccc2c1C/C=C/CCc1cc(C)[nH]c(=O)c1CNC2=O)C1CCC2(CC1)CN(C)C2 [Example 67, (E)-10-(ethyl(2-methyl-2-azaspiro[3.5]nonan-7-yl)amino)-3-methyl-5,6,15,16-tetrahydrobenzo[c]pyrido[4,3-j][1]azacyclododecine-1,14(2H,9H)-dione]
8 | 79 nM | CCN(c1cccc2c1C/C=C/CCCc1cc(C)[nH]c(=O)c1CNC2=O)[C@H]1CC[C@H](N(C)C)CC1 [Example 53, (E)-11-((trans-4-(dimethylamino)cyclohexyl)(ethyl)amino)-3-methyl-5,6,7,10,16,17-hexahydro-1H-benzo[c]pyrido[4,3-k][1]azacyclotridecine-1,15(2H)-dione]
9 | 251 nM | CCN(c1cccc2c1C/C=C/CCc1cc(C)[nH]c(=O)c1CNC2=O)[C@H]1CC[C@@H](N(C)C)CC1 [Example 55, (E)-10-((cis-4-(dimethylamino)cyclohexyl)(ethyl)amino)-3-methyl-5,6,15,16-tetrahydrobenzo[c]pyrido[4,3-j][1]azacyclododecine-1,14(2H,9H)-dione]
10 | 251 nM | CCN(c1cccc2c1CCCCc1cc(C)[nH]c(=O)c1CNC2=O)[C@H]1CC[C@H](N(C)C)CC1 [Example 62, 9-((trans-4-(dimethylamino)cyclohexyl)(ethyl)amino)-3-methyl-5,6,7,8,14,15-hexahydro-1H-benzo[c]pyrido[4,3-i][1]azacycloundecine-1,13(2H)-dione]
11 | 126 nM | CCN(c1cccc2c1C/C=C/CCc1cc(C)[nH]c(=O)c1CNC2=O)[C@H]1CC[C@H](N2CCOCC2)CC1 [Example 50, (E)-10-(ethyl(trans-4-morpholinocyclohexyl)amino)-3-methyl-5,6,15,16-tetrahydrobenzo[c]pyrido[4,3-j][1]azacyclododecine-1,14(2H,9H)-dione]
12 | 79 nM | CCN(c1cccc2c1C/C=C/CCc1cc(C)[nH]c(=O)c1CNC2=O)C1CC2(C1)CN(C)C2 [Example 72, (E)-10-(ethyl(2-methyl-2-azaspiro[3.3]heptan-6-yl)amino)-3-methyl-5,6,15,16-tetrahydrobenzo[c]pyrido[4,3-j][1]azacyclododecine-1,14(2H,9H)-dione]
13 | 79 nM | CCN1CCC(N(CC)c2cccc3c2C/C=C/CCc2cc(C)[nH]c(=O)c2CNC3=O)CC1 [Example 44, (E)-10-(ethyl(1-ethylpiperidin-4-yl)amino)-3-methyl-5,6,15,16-tetrahydrobenzo[c]pyrido[4,3-j][1]azacyclododecine-1,14(2H,9H)-dione]
14 | 5010 nM | Cc1cc2c(c(=O)[nH]1)CNC(=O)c1cccc(O[C@H]3CC[C@H](N(C)C)CC3)c1C/C=C\CC2 [Example 85, (Z)-10-((trans-4-(dimethylamino)cyclohexyl)oxy)-3-methyl-5,6,15,16-tetrahydrobenzo[c]pyrido[4,3-j][1]azacyclododecine-1,14(2H,9H)-dione]
15 | 50 nM | CCN(c1cccc2c1C/C=C/CCc1cc(C)[nH]c(=O)c1CNC2=O)C1CCN(Cc2ccn(C)n2)CC1 [Example 45]
16 | 200 nM | CCN(c1cccc2c1C/C=C/CCc1cc(C)[nH]c(=O)c1CNC2=O)[C@H]1CC[C@H](N2CC(F)(F)C2)CC1 [Example 81, (E)-10-((trans-4-(3,3-difluoroazetidin-1-yl)cyclohexyl)(ethyl)amino)-3-methyl-5,6,15,16-tetrahydrobenzo[c]pyrido[4,3-j][1]azacyclododecine-1,14(2H,9H)-dione]
17 | 158 nM | CCN(CC)[C@H]1CC[C@H](N(CC)c2cccc3c2C/C=C/CCc2cc(C)[nH]c(=O)c2CNC3=O)CC1 [Example 49, (E)-10-((trans-4-(diethylamino)cyclohexyl)(ethyl)amino)-3-methyl-5,6,15,16-tetrahydrobenzo[c]pyrido[4,3-j][1]azacyclododecine-1,14(2H,9H)-dione]
18 | 1260 nM | CCN(c1cccc2c1C/C=C/CCc1cc(C)[nH]c(=O)c1CNC2=O)[C@H]1CC[C@H](N2CCC2)CC1 [Example 60, (E)-10-((trans-4-(azetidin-1-yl)cyclohexyl)(ethyl)amino)-3-methyl-5,6,15,16-tetrahydrobenzo[c]pyrido[4,3-j][1]azacyclododecine-1,14(2H,9H)-dione]
19 | 251 nM | CCN(c1cccc2c1C/C=C/CCc1cc(C)[nH]c(=O)c1CNC2=O)[C@H]1CC[C@@H](NCCC(F)(F)F)CC1 [Example 82, (E)-10-(ethyl(cis-4-((3,3,3-trifluoropropyl)amino)cyclohexyl)amino)-3-methyl-5,6,15,16-tetrahydrobenzo[c]pyrido[4,3-j][1]azacyclododecine-1,14(2H,9H)-dione]
